Results taken from the METLIN SMRT retention time set (Domingo-Almenara et al. 2019).

Experiment: gradient 5% acetonitrile 3 min, to 50% in 2 min, to 85% in 15 min, held 3 min, 100 µL/min
Conditions: column: Zorbax Extend-C18 2.1 x 50 mm; eluents: water / acetonitrile, 0.1% formic acid
How it was run: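 Data were gathered over 3 months by HPLC coupled to a quadrupole time-of-flight mass spectrometer, operated in positive and negative ionization mode. Mixtures of ~100 pure standards ran on a Zorbax Extend-C18 column (2.1 × 50 mm, 1.8 μm) at 100 μL/min, with water and acetonitrile each containing 0.1% formic acid and dead and dwell volumes of 40 μL and 900 μL. Retention time was read from adduct peaks picked by computer and checked manually.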

Row | Compound | RP-LC retention time [s]
1 | Cc1ccc(Nc2c(-c3ccc(N(C)C)cc3)nc3ncccn23)cc1Cl | 805
2 | COc1ccc(C(F)(F)F)cc1NC(=O)CCCSc1ccc(NC(C)=O)nn1 | 785
3 | Cc1ccc2c(=O)c(C(=O)N3CCOCC3)cn(CC(=O)NC3CCCCC3)c2n1 | 653
4 | COc1cccc(CC(=O)N2CCC3(CC2)N=C(c2ccccc2)NO3)c1 | 802
5 | COc1cc(OC)cc(-c2nnc(Cc3nc(-c4ccc5c(c4)OCO5)no3)o2)c1 | 978
6 | COC(=O)c1ccc(CSc2nccc3c(OC)cccc23)o1 | 1100
7 | CO[C@H]1C(=O)N(C(C)C)[C@H]1C1CCN(S(=O)(=O)Cc2ccccc2F)CC1 | 831
8 | COCCn1cc(CC(=O)NC(C)C)c2cccnc21 | 601
9 | Cc1cccc(NC(=O)Cn2cc(C(=O)N3CCCC3)c(=O)c3ccc(C)nc32)c1 | 698
10 | CCN1CCn2cc(S(=O)(=O)N3CCN(c4ccccc4F)CC3)cc2C1=O | 826
11 | Cc1nnsc1C(=O)Nc1onc2c1CSC2 | 666
12 | CC(C)C(=O)NCc1csc(C2CCCN(C(=O)c3cc(F)cc(F)c3)C2)n1 (stereo not drawn) | 757
13 | Cc1ccc(-n2c(C)c(C)c3c(=O)n(CC(=O)NC4CCCC4)cnc32)cc1 | 834
14 | O=S(=O)(c1cc(-c2nnc(C3CC3)o2)co1)N1CCN(c2ccccn2)CC1 | 640
15 | O=C1CC(c2noc(C3CCC3)n2)CN1c1ccccc1 (stereo not drawn) | 869
16 | CC1CCCC(NC(=O)c2cc(=O)[nH]c3ccc(Br)cc23)C1C (stereo not drawn) | 869
17 | O=C(Cn1c(=O)c2cccn2c2ccc(F)cc21)NCCN1CCOCC1 | 592
18 | CCOC(=O)C1CCCN(c2ncnc3c2cnn3-c2ccccc2)C1 (stereo not drawn) | 1070
19 | CCOc1nc2ccccc2nc1N1CCCC(C(=O)NC(C)c2ccccc2)C1 (stereo not drawn) | 1120
20 | CCOc1cccc(-c2noc(Cn3c(=O)n(-c4ccccc4C)c(=O)c4sccc43)n2)c1 | 1070
21 | CCCn1c(=O)c(C)nc2cc(-c3noc(COc4ccc(F)cc4)n3)ccc21 | 1060
22 | Cc1ccc(S(=O)(=O)Nc2ccc(C)n(CC(=O)O)c2=O)cc1 | 694

Row | Compound | RP-LC retention time [s]
23 | Cc1cc(C)cc(Nc2c(-c3ccc(O)cc3)nc3ncccn23)c1 | 705
24 | CSCc1noc(Cn2ccc3ccn(CCN(C)C)c3c2=O)n1 | 597
25 | CCCCn1c(=O)c2ccccc2n(Cc2nc(-c3ccccc3C)no2)c1=O | 1240
26 | CS(=O)(=O)N(Cc1ccncc1)C1CN(C(=O)c2ccc3ncccc3c2)C1 | 698
27 | Cc1ncoc1C(=O)N1CCC(c2noc(-c3ccncc3)n2)C1 (stereo not drawn) | 642
28 | O=C(Cn1cccc1-c1nnc(C2CC2)o1)NCc1cccc(Br)c1 | 869
29 | CSc1cccc(NC(=O)c2cn(C)nc2S(=O)(=O)N2CCSCC2)c1 | 973
30 | CC(C)c1noc(-c2cccnc2-n2cnc(C(=O)Nc3ccc(F)cc3)c2)n1 | 890
31 | O=C(NCc1ccccc1F)c1ccc2c(c1)CN(Cc1cccc(F)c1)CCO2 | 675
32 | O=C(c1ccsc1)N1[C@H]2CC[C@@H]1c1cnc(-c3ccc(F)cc3)nc1C2 | 952
33 | Cc1ccccc1Cc1nc(C2CC(=O)N(c3ccc(F)c(Cl)c3)C2)no1 (stereo not drawn) | 1090
34 | CCc1ccc(NC(=O)N2CCc3nc(-c4ccc(F)cc4)ncc3C2)cc1 | 1040
35 | COC(=O)c1ccc2c(=O)n(Cc3ccc(F)cc3)c(N3CCSC3)nc2c1 | 1090
36 | CN(C)C(CNC(=O)C1(c2ccccc2)CCOCC1)c1cn(C)c2ccccc12 (stereo not drawn) | 588
37 | COc1ccc(Cl)cc1NC(=O)N1CCN(CCn2cnc3cccnc32)CC1 | 625
38 | O=C(COc1ccccc1F)Nc1cc(C(F)(F)F)ccc1Cl | 1150
39 | CN(C)c1nc2ncn3c(=O)n(CC(=O)Nc4ccc(Cl)cc4F)nc3c2s1 | 748
40 | Cc1ccc(SCC(=O)Nc2nc(-c3ccccc3)cs2)cc1 | 1100
41 | CCOc1ccccc1-c1noc(Cn2c(=O)n(-c3cccc(C)c3)c(=O)c3sccc32)n1 | 1010
42 | CCCN(C)S(=O)(=O)c1cc(-c2nc(C)cs2)n(CC(=O)N2CCCCC2)c1 | 967
43 | CCCn1cc(C(=O)Nc2ccc(F)cc2C)c2cccnc21 | 882
44 | Cc1ccccc1-c1nnc(CSc2ccc(N)cc2)o1 | 818

Row | Compound | RP-LC retention time [s]
45 | O=C(Cn1cccc1-c1nc(-c2ccc3c(c2)OCO3)no1)Nc1cc(F)ccc1F | 1000
46 | O=C(c1ccc(Cl)s1)N1CCC(Oc2nc3c(F)cc(F)cc3s2)CC1 | 1140
47 | O=C(CSc1ccc(N2CCCC(C(=O)NC3CC3)C2)nn1)NCc1ccc(C(F)(F)F)cc1 (stereo not drawn) | 694
48 | Cc1ccc(Sc2nccnc2N2CCCC(C(=O)NC(C)C)C2)cc1 (stereo not drawn) | 996
49 | Cc1ccc(S(=O)(=O)N2CCOCC2)cc1-c1nnc(-c2ccccc2Cl)o1 | 951
50 | COc1ccccc1NC(=O)Cn1c(C)cc(-c2nnc(-c3ccccc3)o2)c1C | 988
51 | O=C(NCCOc1cccc(C(F)(F)F)c1)c1ccccc1Cl | 907
52 | CC1=C(c2ccc(C)cc2)S(=O)(=O)N=C1N1CCCN(C(=O)NC(C)(C)C)CC1 | 836
53 | Cc1ccc(-n2c(=O)c3c(cc(C)n3C)n(CC(=O)Nc3ccc(C)c(F)c3)c2=O)cc1 | 931
54 | COc1cc(CN2CCc3nc(N4CCN(c5ccccn5)CC4)ncc3C2)cc(OC)c1OC | 567
55 | CCOc1ccc(NC(=O)c2oc3ccc(Br)cc3c2C)c2cccnc12 | 815
56 | CC(C)NC(=O)c1ccc(OCC2CCCN2C(=O)c2ccc(C(F)(F)F)cc2)cc1 (stereo not drawn) | 914
57 | Cc1ccc(S(=O)(=O)[C@H]2CS(=O)(=O)C[C@@H]2N2CCN(c3ccc(F)cc3)CC2)cc1 | 962
58 | O=C1CC(Nc2ccc(N3CCCCC3)cc2)C(=O)N1c1ccccc1F (stereo not drawn) | 571
59 | CCOC(=O)N1CCN(S(=O)(=O)c2ccc(OCC)cc2OCC)CC1 | 858
60 | NC(=O)c1cc(-c2ccccc2)sc1NC(=O)c1cc(Cl)sc1Cl | 1180
61 | Cc1ccc(C)c(N2CCN(c3ccnc(SCC(=O)Nc4ccccc4F)n3)CC2)c1 | 1010
62 | CCCc1noc(-c2ccc3nnc(CC(=O)Nc4ccc(C)c(C)c4)n3c2)n1 | 940
63 | CN(C(=O)CSc1cc(NCc2ccc(Cl)cc2)ncn1)C1CCCCC1 | 956
64 | Cc1ccc(-c2nc(C3CC(=O)N(c4ccc(C)cc4)C3)no2)cc1 (stereo not drawn) | 1080
65 | COc1cc(C(=O)Nc2ccc(-c3cn4ccc(C)nc4n3)cc2)cc(OC)c1OC | 634
66 | c1ccc(-c2n[nH]c(C3CCCCN3)n2)cc1 (stereo not drawn) | 574

Row | Compound | RP-LC retention time [s]
67 | COc1cc(OC)cc(C(=O)N2C[C@@H]3C[C@H](NC(=O)c4cccs4)[C@H]2C3)c1 | 660
68 | Fc1ccc(CN2CCCCC2c2nc(-c3cnccn3)no2)c(F)c1 (stereo not drawn) | 738
69 | N#CC1=C(N)Oc2c(ccc3cccnc23)C1c1ccccc1 (stereo not drawn) | 768
70 | CCn1cc(C(=O)Nc2cccc(C)c2)c(S(=O)(=O)N2CCSCC2)n1 | 902
71 | Cc1nnc(CNC(=O)c2cccc(-n3cnnn3)c2)o1 | 567
72 | Clc1ccc(-c2noc(Cc3nnc(-c4cccc(Br)c4)o3)n2)cc1 | 1210
73 | COc1ccc(C(C)NC(=O)c2cnn3c(-c4ccc5c(c4)OCO5)ccnc23)cc1OC (stereo not drawn) | 875
74 | Cc1ccc(-c2ccc3nnc(CCC(=O)NCCCOC(C)C)n3n2)cc1C | 795
75 | O=C(Cn1cnc2ccccc2c1=O)N1CCC(c2nnc(-c3ccco3)o2)CC1 | 621
76 | O=C(Nc1cccc(F)c1)C1CCN(C(=O)c2ncn3c2COC(c2ccccc2)C3)CC1 (stereo not drawn) | 921
77 | CCOC(=O)C1CCN(c2ncc(S(=O)(=O)c3ccc(CC)cc3)c(N)n2)CC1 | 1030
78 | Cc1nc(CCNC(=O)C2CCN(S(=O)(=O)c3cccc(C(F)(F)F)c3)CC2)cs1 | 776
79 | CCn1c(=O)c(C(=O)NCc2ccc(F)cc2)nc2cccnc21 | 790
80 | CC(=O)Nc1ccc2c(c1)CN(C(=O)c1cccc(Cl)c1)C(C(=O)N1CCCC1)C2 (stereo not drawn) | 690
81 | CCSc1nnc(-c2nn(C)c3c2CN(S(=O)(=O)c2ccc(OC)c(Cl)c2)CC3)n1CC | 968
82 | CCSc1nnc(-c2nn(C)c3c2CN(S(=O)(=O)Cc2ccccc2Cl)CC3)n1CC | 960
83 | Cc1cc(C(=O)N(C)C2CCc3nnc(C)n3CC2)c(C)n1Cc1ccco1 (stereo not drawn) | 654
84 | CCN1C(=O)C2(CCN(S(=O)(=O)c3cc(Cl)ccc3OC)CC2)c2ccccc21 | 1000
85 | COc1ccc(S(=O)(=O)N2CCC(C(=O)NCc3csc(-c4ccccc4)n3)CC2)cc1 | 885
86 | Cc1cc(C)cc(NC(=O)Cn2ccc3ccn(C)c3c2=O)c1 | 829
87 | CC1CCCN(c2ccc(-c3noc(CN4CCC5(CC4)OCCO5)n3)cn2)C1 (stereo not drawn) | 680
88 | Cc1ccc(NC(=O)N2CCC(N3CCN(Cc4ccc(F)cc4)C(=O)C3=O)CC2)cc1F | 770
